In patent US8536332B2, “Modulating signal transduction pathways with substituted pyridol [2,3-b] pyrazines” (Aeterna Zentaris GmbH, priority 2007, dated 2013) one finds melting point, IC50 and EC50 data, which are given here for 16 compounds.

Data set [1] has as its system T1, Jnk1 + Jnk2.
T1 construct: fused on or other part: GST tag or His tag (commercial recombinant fusion proteins from Proqinase or Upstate)
As to the kind of experiment: Cell-free kinase assay (ALPHA technology) Jnk1 + Jnk2. The format is biochemical, human. As to conditions: 10 μM ATP. As to the method:
(§1) The inhibitory effect of the compounds of the invention was tested on various human serine/threonine kinases, tyrosine kinases and lipid kinases in enzymatic assays. Recombinant human kinases, for example PI3Kalpha, -beta, -gamma, -delta, Erk2, p38alpha, p38gamma, Jnk1, Jnk2 and others were used, in some cases as full-length kinases, in some cases as truncated fragments—but at least consisting of the functional kinase domains. The commercial kinase proteins (Proqinase, Upstate) were used as recombinant fusion proteins with GST (glutathione S-transferase) tag or His tag. Depending on the substrate type, the different kinase reactions were quantified by suitable ALPHA™ beads (PerkinElmer).
(§2) The kinase assays for PI3K and Erk are described in detail and selected test results are cited below. […] Subsequently, the kinase reaction was stopped by adding the ALPHA bead mix (10 μg/ml, #6760603/PerkinElmer), preincubated with 1 nM GST:Grp1 fusion protein (Upstate) and […] (#C-39B6/Echelon) in 50 mM Hepes, 50 mM NaCl, 50 mM EDTA and 0.1% BSA, and left to stand overnight. • b) Erk2-ALPHA: The test substance, 0.625 ng of Erk2 (#14-173, Upstate), 10 μM ATP and 15 nM biotinylated MBP (myelin basic protein) substrate were incubated on a 384-well Optiplate (Perkin Elmer) in a volume of 15 μl for 1 h in 25 mM Tris, 10 mM MgCl2, 0.1% Tween-20, 100 μM NaVO4, 2 mM DTT at pH 7.5. The kinase reaction was stopped by adding 10 μl of the ALPHA bead mix (10 μg/ml, #6760617/PerkinElmer), pre-incubated with anti-phospho MBP antibody (320 pM, #05-429/Upstate), in 25 mM Tris, 200 mM NaCl, 100 mM EDTA and 0.3% BSA, and left to stand overnight.
(§3) The luminiscence was detected the next morning in a Fusion™ alpha instrument (Perkin Elmer).
(§4) The calculation of % inhibition values per substance concentration was done by means of the following formula from the raw data determined in the Fusion™ alpha:
(§5) The controls were determined 8 fold and the substance samples 2 fold. 0% control contained neither any ATP nor any substrate. The 100% control contained no test substance. The IC50 values were determined with GraphPadPrism.

Data set [2] has as its target T2, Erk2 (Mus musculus, UniProt P63085).
T2 construct: purchased Upstate #14-173
Description: Cell-free kinase assay Erk2-ALPHA. The format is biochemical, human. To be noted: 10 μM ATP. Here is the method:
as §1, §2, §3, §4, §5

Data set [3] relates to MDA-MB468. Description: XTT assay, anti-proliferative activity, MDA-MB468. As to conditions: Homo sapiens, MDA-MB-468; 45 h incubation. The format is cell-based. Here is the method:
(§6) The principle of this test is based on the intracellular reduction of the tetrazolium dye XTT (sodium 3′-[1-(phenylaminocarbonyl)-3,4-tetrazolium]bis(4-methoxy-6-nitro)benzenesulphonic acid, Sigma) to a formazan dye by mitochondrial dehydrogenases. The dye is formed only by metabolically active cells. Its photometrically measurable intensity is a quantitative indicator for the presence of living cells. The reduction in the dye formation as a result of incubation of the cells with substances serves as a parameter for the anti-proliferative activity.
(§7) The tumour cell lines (ATCC) were seeded in 96-well microtitre plates in a defined cell count (5000 cells/well for Hct116; 10000 cells/well for MDA MB468), and incubated overnight at 37° C., 5% CO2 and 95% air humidity. The test substances were made up as stock solutions (10 mM) in DMSO. […] The cell plates were then incubated for 45 h at 37° C., 5% CO2 and 95% air humidity.
(§8) For the detection reaction, the XTT substrate was mixed with PMS (N-methyldibenzopyrazine methylsulphate, Sigma) and added to the cells, to result in a final concentration of 325 μg of XTT/ml and 2.5 μg PMS/ml. The mixture was then incubated for 3 h at 37° C., 95% air humidity. Subsequently the formazan salt formed by cellular dehydrogenases was quantified at an absorption of 490 nm.
(§9) The evaluation of the % inhibition values was done by means of the following formula from the values for the optical densities measured in each case at 490 nm:
(§10) The controls were determined 8 fold, the substance samples 2 fold. 0% control contained no cells and the 100% control contained no test substance. The EC50 values were determined with GraphPadPrism.
Background: Tetrazolium assays rely on reduction of a dye to a coloured formazan, in cell work by metabolically active cells.

Data set [4] has as its system Hct116. As to the kind of experiment: XTT assay, anti-proliferative activity, Hct116. Format: cell-based. To be noted: Homo sapiens, HCT-116; 45 h incubation. As to the method:
as §6, §7, §8, §9, §10

Data set [5] has as its target p38alpha (Homo sapiens, UniProt Q16539). As to the kind of experiment: Cell-free kinase assay (ALPHA technology) p38alpha. Format: biochemical. To be noted: 10 μM ATP. Here is the method: as §1, §2, §3, §4, §5

Bounds are passed on as bounds.

T2 sequence (P63085 whole entry): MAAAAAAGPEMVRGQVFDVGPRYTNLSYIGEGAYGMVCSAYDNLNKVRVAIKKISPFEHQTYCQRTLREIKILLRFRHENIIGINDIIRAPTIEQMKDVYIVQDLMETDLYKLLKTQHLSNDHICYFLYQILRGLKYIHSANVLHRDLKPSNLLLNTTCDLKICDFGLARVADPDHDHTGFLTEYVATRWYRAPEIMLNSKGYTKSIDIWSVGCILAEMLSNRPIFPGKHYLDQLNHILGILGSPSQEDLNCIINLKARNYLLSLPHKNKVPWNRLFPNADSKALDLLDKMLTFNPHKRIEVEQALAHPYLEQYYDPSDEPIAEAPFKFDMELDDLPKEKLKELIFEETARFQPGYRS
p38alpha, sequence (Q16539 whole entry): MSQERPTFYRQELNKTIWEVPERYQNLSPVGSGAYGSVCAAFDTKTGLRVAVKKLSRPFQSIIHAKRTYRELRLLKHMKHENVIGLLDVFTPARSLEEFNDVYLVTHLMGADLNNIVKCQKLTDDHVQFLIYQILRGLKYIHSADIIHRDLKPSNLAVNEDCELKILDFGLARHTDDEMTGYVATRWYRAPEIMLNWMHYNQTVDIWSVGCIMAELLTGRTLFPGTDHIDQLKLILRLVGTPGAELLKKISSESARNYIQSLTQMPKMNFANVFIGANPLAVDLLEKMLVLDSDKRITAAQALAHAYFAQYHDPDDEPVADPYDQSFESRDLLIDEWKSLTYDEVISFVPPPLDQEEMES

Take `COc1cc(-c2ccc3ncc(NC(=O)NCCCl)nc3n2)ccc1O` [Compound 173, 1-(2-Chloro-ethyl)-3-[6-(4-hydroxy-3-methoxy-phenyl)-pyrido[2,3-b]pyrazin-3-yl]-urea]: the melting point lay within 215 to 218 °C. For the same compound, the IC50 in data set [1] was below 31.6 µM. The half-inhibitory concentration (IC50) in data set [2] is below 50 µM. For the same compound, the EC50 in data set [3] is below 1 µM. This compound returned a 50% effective concentration (EC50) in data set [4] below 1 µM. For the same compound, in data set [5], the IC50 was below 50 µM.
As for `CCNC(=S)Nc1ccc2ncc(Nc3ccc(OC)c(O)c3)nc2n1` [Compound 147, 1-Ethyl-3-[3-(3-hydroxy-4-methoxy-phenylamino)-pyrido[2,3-b]pyrazin-6-yl]-thiourea], the melting point amounted to 272 °C. The 50% inhibitory concentration (IC50) in data set [1] was above 31.6 µM. In data set [2], this compound registered an IC50 above 100 µM. The EC50 in data set [3] is below 5 µM. Moreover, the EC50 in data set [4] was below 5 µM. The IC50 in data set [5] is above 100 µM.
`CCNC(=S)Nc1ccc2ncc(Nc3cc(OC)c(OC)c(OC)c3)nc2n1` [Compound 160, 1-Ethyl-3-[3-(3,4,5-trimethoxy-phenylamino)-pyrido[2,3-b]pyrazin-6-yl]-thiourea] came in with a melting point of 268 °C. Moreover, the IC50 in data set [1] was above 100 µM. The compound further had an IC50 in data set [2] below 31.6 µM. For the same compound, the EC50 in data set [3] is below 1 µM. In data set [4], this compound had an EC50 below 1 µM. The compound further registered a half-maximal inhibitory concentration (IC50) in data set [5] below 50 µM.
For the compound `COc1cc(-c2ccc3ncc(NC(=O)Nc4cccs4)nc3n2)ccc1O` [Compound 614, 1-[6-(4-Hydroxy-3-methoxy-phenyl)-pyrido[2,3-b]pyrazin-3-yl]-3-thiophen-2-yl-urea], the melting point was 216 to 219 °C. In addition, the IC50 in data set [1] is below 31.6 µM. In data set [2], this compound gave an IC50 below 31.6 µM. In data set [3], the EC50 is below 5 µM. The compound further had an EC50 in data set [4] below 5 µM. This compound also registered an IC50 in data set [5] below 10 µM.
`COc1cc(-c2ccc3ncc(NC(=O)NC4CCN(C(=O)C(F)(F)F)CC4)nc3n2)ccc1O` [Compound 30, 1-[6-(4-Hydroxy-3-methoxy-phenyl)-pyrido[2,3-b]pyrazin-3-yl]-3-[1-(2,2,2-trifluoro-acetyl)-piperidin-4-yl]-urea] yielded a melting point of 236 to 239 °C. Moreover, the 50% inhibitory concentration (IC50) in data set [1] was below 31.6 µM. In data set [2], the IC50 is below 10 µM. Besides, the IC50 in data set [5] was below 10 µM.
The compound `CCNC(=O)Nc1cnc2ccc(-c3ccc(O)c(Cl)c3)nc2n1` [Compound 637, 1-[6-(3-Chloro-4-hydroxy-phenyl)-pyrido[2,3-b]pyrazin-3-yl]-3-ethyl-urea] came in with a melting point above 270 °C. The IC50 in data set [1] was above 100 µM. In data set [2], this compound had an IC50 above 100 µM. Besides, in data set [3], the EC50 was below 10 µM. In addition, the EC50 in data set [4] is below 10 µM. The same compound yielded an IC50 in data set [5] above 100 µM.
On to `COc1cc(Nc2cnc3ccc(NC(=S)NC4CCCC4)nc3n2)cc(OC)c1OC` [Compound 509, 1-Cyclopentyl-3-[3-(3,4,5-trimethoxy-phenylamino)-pyrido[2,3-b]pyrazin-6-yl]-thiourea], for which the melting point was determined as 246 °C. Also, in data set [1], the IC50 is above 100 µM. This compound showed an IC50 in data set [2] above 100 µM. Moreover, the EC50 in data set [3] is below 5 µM. Besides, the EC50 in data set [4] is below 5 µM. The same compound returned an IC50 in data set [5] above 100 µM.
Compound `COc1cc(-c2ccc3ncc(NC(=O)NC4CCCC4)nc3n2)ccc1O` [Compound 20, 1-Cyclopentyl-3-[6-(4-hydroxy-3-methoxy-phenyl)-pyrido[2,3-b]pyrazin-3-yl]-urea] showed a melting point of 222 to 225 °C. The IC50 in data set [1] was above 100 µM. The same compound returned an IC50 in data set [2] above 100 µM. Also, in data set [5], the IC50 is above 100 µM.
For `CNC(=O)Nc1cnc2ccc(-c3ccc(OC)c(OC)c3)nc2n1` [Compound 566, 1-[6-(3,4-Dimethoxy-phenyl)-pyrido[2,3-b]pyrazin-3-yl]-3-methyl-urea], the melting point was 253 to 255 °C. The IC50 in data set [1] is above 100 µM. In data set [2], this compound came in with an IC50 above 100 µM. The EC50 in data set [3] was below 5 µM. In data set [4], this compound had an EC50 below 5 µM. The compound further registered an IC50 in data set [5] above 31.6 µM.
For `CNC(=S)Nc1cnc2ccc(-c3ccc(O)c(OC)c3)nc2n1` [Compound 526, 1-[6-(4-Hydroxy-3-methoxy-phenyl)-pyrido[2,3-b]pyrazin-3-yl]-3-methyl-thiourea], the melting point was 279 to 280 °C. Moreover, in data set [1], the IC50 was above 100 µM. The IC50 in data set [2] was above 100 µM. Besides, in data set [3], the EC50 was below 1 µM. In data set [4], this compound displayed an EC50 below 5 µM. For the same compound, the IC50 in data set [5] was below 50 µM.
Turning to `CCNC(=S)Nc1ccc2ncc(-c3cc(OC)c(OC)c(OC)c3)nc2n1` [Compound 134, 1-Ethyl-3-[3-(3,4,5-trimethoxy-phenyl)-pyrido[2,3-b]pyrazin-6-yl]-thiourea], the melting point turned out to be 230 °C. Also, the EC50 in data set [3] was below 5 µM. Further, in data set [4], the EC50 is below 5 µM.
With `O=C(Nc1cnc2ccc(-c3cc(Cl)c(O)c(Cl)c3)nc2n1)NC1CCCC1` [Compound 563, 1-Cyclopentyl-3-[6-(3,5-dichloro-4-hydroxy-phenyl)-pyrido[2,3-b]pyrazin-3-yl]-urea], the melting point was 262 to 264 °C. The compound also gave an IC50 in data set [2] above 100 µM. For the same compound, the EC50 in data set [3] was below 1 µM. This compound gave an EC50 in data set [4] below 1 µM.
Compound `COc1cc(-c2ccc3ncc(NC(=O)Nc4ccncc4)nc3n2)ccc1O` [Compound 176, 1-[6-(4-Hydroxy-3-methoxy-phenyl)-pyrido[2,3-b]pyrazin-3-yl]-3-pyridin-4-yl-urea] came in with a melting point of 234 to 237 °C. Further, in data set [1], the IC50 was below 50 µM. The IC50 in data set [2] is above 31.6 µM. Besides, the EC50 in data set [3] was below 1 µM. In data set [4], this compound displayed an EC50 below 1 µM. In data set [5], this compound registered an IC50 below 50 µM.
On to `CC(C)(C)NC(=O)Nc1cnc2ccc(-c3cc(Cl)c(O)c(Cl)c3)nc2n1` [Compound 553, 1-tert-Butyl-3-[6-(3,5-dichloro-4-hydroxy-phenyl)-pyrido[2,3-b]pyrazin-3-yl]-urea], for which the melting point lay within 251 to 253 °C. The IC50 in data set [1] is below 100 µM. The IC50 in data set [2] is above 100 µM. Besides, the EC50 in data set [3] is below 5 µM. In addition, the EC50 in data set [4] is below 5 µM. This compound also yielded an IC50 in data set [5] above 100 µM.
`CCNC(=S)Nc1ccc2ncc(Nc3ccc(C)cc3)nc2n1` [Compound 126, 1-Ethyl-3-(3-p-tolylamino-pyrido[2,3-b]pyrazin-6-yl)-thiourea] gave a melting point of 278 °C. The EC50 in data set [3] is below 5 µM. The compound also yielded a 50% effective concentration (EC50) in data set [4] below 5 µM.
In the case of `CCNC(=O)Nc1cnc2ccc(-c3cc(C)c(O)c(C)c3)nc2n1` [Compound 181, 1-Ethyl-3-[6-(4-hydroxy-3,5-dimethyl-phenyl)-pyrido[2,3-b]pyrazin-3-yl]-urea], the melting point is above 240 °C. Further, the IC50 in data set [1] was above 100 µM. The compound also yielded an IC50 in data set [2] above 100 µM. In data set [3], this compound yielded an EC50 below 10 µM. In data set [4], this compound gave an EC50 below 10 µM. This compound also returned a concentration for half-maximal inhibition (IC50) in data set [5] below 50 µM.

The melting point is the temperature of the solid-liquid transition. In general, IC50 refers to the concentration needed to halve the response being measured. By EC50 is commonly meant the concentration at which the effect is half-maximal. Low values mean greater potency, high ones weaker potency.
